# Data from patent USRE38333E1, “Antiviral phosphonomethoxy nucleotide analogs having increased oral bioavailability” (Gilead Sciences, Inc., priority 1996, dated 2003).
# System: not given
# Experiment: not given
# Assay type: in vitro ADME
# Details: 37° C., 20 μg/mL
# Experimental: (§1) Enzymatic stability studies involving plasma and intestinal homogenate were performed with 90% biological fluids.
# (§2) One blank (drug free) incubation was performed for each biological fluid. All biological fluid tubes (open) were pre-incubated without PMPA prodrugs in a shaker bath at 37° C. and 100 oscillation/min for 5 minutes. PMPA prodrugs was added to the test incubations (final concentration: 20 μg/mL, mixed and maintained at 37° C. and 100 oscillations/min. Samples (50 μL) were withdrawn at 0, 30, and 60 minutes and the reaction was quenched with 100 μL of 0.1% trifluoroacetic acid (TFA) in acetonitrile. Quenched samples were centrifuged for 5 minutes at 14,000 rpm in an Eppendorf Centrifuge 5402, and the supernatant was used for HPLC analysis.
# (§3) For each incubation, the observed rate constant for degradation was calculated by plotting the log of the peak area of PMPA prodrugs versus time of incubation (min). The slope was the observed rate constant (kobs). The half life was calculated according to the following equation: [formula]
# (§4) If the observed rate constant for degradation was less than 0.01 min^−1, then t½ was expressed as stable.
row,Compound,Biological t½ (min) (Dog) Plasma
1,C[C@H](Cn1cnc2c(N)ncnc21)OCP(=O)(OCOC(=O)OC(C)(C)C)OCOC(=O)OC(C)(C)C [Bis-t-Bu COM PMPA],21.2
2,C[C@H](Cn1cnc2c(N)ncnc21)OCP(=O)(OCOC(=O)NC(C)(C)C)OCOC(=O)NC(C)(C)C [Bis-tBuNCOM PMPA],99.5

# System: not listed separately
# Experiment: Enzymatic stability in human intestinal homogenate (S9)
# Assay type: in vitro ADME
# Details: human intestinal homogenate (values in parentheses), 37° C., 20 μg/mL
# Experimental: Human intestinal homogenate (S9) was obtained from Keystone Skin Bank (Exton, Pa.) at concentration of 20 mg protein/mL.
# as §1, §2, §3, §4
row,Compound,Biological t½ (min) (Human) Intestine
1,C[C@H](Cn1cnc2c(N)ncnc21)OCP(=O)(OCOC(=O)OC(C)(C)C)OCOC(=O)OC(C)(C)C [Bis-t-Bu COM PMPA],(<5) min

# System: not given
# Experiment: not given
# Assay type: in vitro ADME
# Details: dog intestinal homogenate, 37° C., 20 μg/mL
# Experimental: Dog intestinal segments (jejunum/ileum) were obtained fresh from Pharmakon USA (Waverly, Pa.) and intestinal homogenate was prepared as described for liver. The intestinal homogenates were stored as 1.0 mL aliquots at −70° C.
# as §1, §2, §3, §4
row,Compound,Biological t½ (min) (Dog) Intestine
1,C[C@H](Cn1cnc2c(N)ncnc21)OCP(=O)(OCOC(=O)OC(C)(C)C)OCOC(=O)OC(C)(C)C [Bis-t-Bu COM PMPA],26.6
2,C[C@H](Cn1cnc2c(N)ncnc21)OCP(=O)(OCOC(=O)NC(C)(C)C)OCOC(=O)NC(C)(C)C [Bis-tBuNCOM PMPA],107.5

# System: HIV-1 (IIIB)
# Experiment: microbe, parasite or virus in culture
# Assay type: cell-based
# Details: HIV-1 (IIIB), MT-2 cells; read-out: IC50 (50% inhibitory concentration)
# Excerpt: PMPA (9-[(R)-2-(phosphonomethoxy)propyl]adenine) and PMPA carbonates were examined to determine their activity against HIV-1.
row,Compound,IC50 [µM]
1,C[C@H](Cn1cnc2c(N)ncnc21)OCP(=O)(OCOC(=O)OC(C)(C)C)OCOC(=O)OC(C)(C)C [Bis-t-Bu COM PMPA],0.2

# Same assay, conditions: HIV-1 (IIIB), MT-2 cells; relative to PMPA
row,Compound,increased potency compared to PMPA [fold]
1,C[C@H](Cn1cnc2c(N)ncnc21)OCP(=O)(OCOC(=O)OC(C)(C)C)OCOC(=O)OC(C)(C)C [Bis-t-Bu COM PMPA],2.5

# Same assay, conditions: Human immunodeficiency virus 1, MT2; HIV-1 (IIIB), MT-2 cells; read-out: IC50 (50% inhibitory concentration)
row,Compound,IC50 [µM]
1,"C[C@H](Cn1cnc2c(N)ncnc21)OCP(=O)(O)O [PMPA, 9-[(R)-2-(phosphonomethoxy)propyl]adenine, reference compound]",0.5

# Same assay, conditions: MT-2 cells, HIV-1
row,Compound,"SI, Selectivity Index (CC50/IC50)"
1,"C[C@H](Cn1cnc2c(N)ncnc21)OCP(=O)(O)O [PMPA, 9-[(R)-2-(phosphonomethoxy)propyl]adenine, reference compound]",500

# System: not listed separately
# Experiment: Oral bioavailability of PMPA and PMPA carbonates in beagle dogs
# Assay type: in vivo
# Details: 6.2-10 mg eq of PMPA/kg, PMPA in plasma
# Experimental: PMPA (9-[(R)-2-(phosphonomethoxy)propyl]adenine) and PMPA carbonates were examined to determine the effect of dose on the pharmacokinetics of PMPA in beagle dogs, in particular the bioavailability of PMPA following oral administration to beagle dogs.
# The intravenous formulations used as standards were isotonic aqueous solutions containing 50 mg/mL PMPA. Compound was added to 10 mL of WFI (water for injection from Abbott Laboratory) and 1N NaOH was added to adjust the pH to 7.4. The solutions were diluted to 15 mL with WFI and sterile filtered with a 0.2 μm filter. The PMPA dose was 10 mg/kg (0.2 mL/kg).
# The intravenous formulation for a 1 mg/kg dose was prepared as described above except only 75 mg of PMPA was added to WFI and the final concentration was 5 mg/mL. The dose was 1 mg/kg (0.2 mL/kg). Oral formulations of carbonates were prepared in 20-40% PEG 400/50 mM citric acid and were adjusted to pH 2.2.
# Two groups of five adult male beagle dogs were used. The mean body weight at the time of the first does was 9.6±0.4 Kg (range 9.2-10.2). The dogs were fasted 12-18 hours prior to dosing and until 6 hours post-dose. For pentagastrin pretreatment, dogs were given a single intramuscular injection of pentagastrin (Peptavlon 0.25 mg/mL, Ayerst Laboratories, Inc., Philadelphia, Pa.) at a dose of 6 μg/kg, 20 minutes prior to dosing. Water was provided ad lib.
# Each formulation was administered as a single dose to five male beagle dogs. Individual vials of each formulation were provided for each animal. The intravenous formulation was administrated via a cephalic vein. The oral suspension was administered by gavage, followed by two 10 mL water washes. At least one week washout period was allowed between administrations.
# Blood samples (4.0 mL) were collected by direct jugular access from each animal into heparinized tubes. Animals remained conscious throughout the sample collection period. Blood was processed immediately for plasma by centrifugation at 2000 rpm for 10 minutes. Plasma samples were frozen and maintained at ≦−20° C. until analyzed.
# Urine samples were collected over 0-24 and 24-48 hours time periods. Urine samples from 0-24 and 24-48 hours were divided into aliquots and mixed based on the volume collected and analyzed to determine amount of PMPA recovered from urine during 0-48 hours.
# PMPA in Plasma and Urine was determined as follows. PMEA (9-(2-phosphono-methoxyethyl)adenine; adefovir) was used as the internal standard for both analyses. The total concentration of PMPA in dog plasma or urine samples was determined by derivatizing PMPA and PMEA with chloroacetaldehyde to yield a highly fluorescent N^1,N^6-ethenoadenine derivative as described (Russell, J. et al. (1991) Determination of 9-[(2-Phosophonylmethoxy)-ethyl]Adenine in Rat Urine by High-Performance Liquid Chromatography with Fluorescence Detection. J. Chromatogr. (Netherlands) 572, 321-326).
# Sample Extraction for PMPA in plasma and urine was performed as follows. Plasma (200 μL) and internal standard ([…]) were mixed with 400 μL of acetonitrile containing 0.1% TFA to precipitate protein. Samples were then evaporated to dryness under reduced pressure at room temperature (Savant SpeedVac). Urine samples (20 μL) and internal standard (30 μL of 10 μg/mL PMEA providing a final PMEA concentration of 1.5 μg/mL) were used directly for derivatization without drying.
# The samples were derivatized for analysis as follows. Dried plasma samples or urine samples were reconstituted or mixed in 200 μL derivatization cocktail (0.34% chloroacetaldehyde in 100 mM sodium acetate, pH 4.5), vortexed, and centrifuged for 10 minutes at 14,000 rpm in an Eppendorf Centrifuge 5402. Supernatant was then transferred to a clean screw capped tube and incubated at 95° C. for 40 minutes. Derivatized samples were quenched on ice and evaporated to dryness under reduced pressure at room temperature. […]
row,Compound,% of PMPA IV (1 mg/kg) AUC: PMPA [%]
1,C[C@H](Cn1cnc2c(N)ncnc21)OCP(=O)(OCOC(=O)OC(C)(C)C)OCOC(=O)OC(C)(C)C [Bis-t-Bu COM PMPA],36.2 ± 6.76
2,C[C@H](Cn1cnc2c(N)ncnc21)OCP(=O)(OCOC(=O)NC(C)(C)C)OCOC(=O)NC(C)(C)C [Bis-tBuNCOM PMPA],8.86 ± 2.38

# Same assay, conditions: intact prodrug in plasma
row,Compound,% of PMPA IV (1 mg/kg) AUC: Prodrug [%]
1,C[C@H](Cn1cnc2c(N)ncnc21)OCP(=O)(OCOC(=O)NC(C)(C)C)OCOC(=O)NC(C)(C)C [Bis-tBuNCOM PMPA],9.97

# Same assay, conditions: urine 0-48 hours
row,Compound,Urinary Recovery (% as PMPA) [%]
1,C[C@H](Cn1cnc2c(N)ncnc21)OCP(=O)(OCOC(=O)OC(C)(C)C)OCOC(=O)OC(C)(C)C [Bis-t-Bu COM PMPA],34.9

# System: not listed separately
# Experiment: Enzymatic stability in dog liver homogenate (S9)
# Assay type: in vitro ADME
# Details: 37° C., 20 μg/mL
# Experimental: Dog liver was obtained fresh from Pharmakon USA (Waverly, Pa.). Liver homogenate was prepared following a standard protocol. Dog liver was rinsed three times with ice-code 50 mM sodium/potassium phosphate buffer and homogenized with a Tekmar Tissumizer homogenizer (VWR 33995-060). The homogenate was centrifuged at 9000 g (11,000 rpm for Eppendorf Centrifuge 5402; Brinkman Instruments, Westbury, N.Y.) at 4° C. for 20 minutes. The supernatant was designated at the S9 fraction. The concentration of protein in the S9 fraction was determined using a Bio-Rad Protein Assay Kit II, with bovine serum albumin as standard. Esterase activity was determined using o-nitrophenyl butyreate as substrate and activity was calculated based on the increase in absorbance at 420 nm after a 1 min incubation. The homogenates were stored as 1.0 mL aliquots at −70° C.
# as §2, §3, §4
row,Compound,Biological t½ (min) (Dog) Liver
1,C[C@H](Cn1cnc2c(N)ncnc21)OCP(=O)(OCOC(=O)OC(C)(C)C)OCOC(=O)OC(C)(C)C [Bis-t-Bu COM PMPA],14.9
2,C[C@H](Cn1cnc2c(N)ncnc21)OCP(=O)(OCOC(=O)NC(C)(C)C)OCOC(=O)NC(C)(C)C [Bis-tBuNCOM PMPA],166.5

# System: not listed separately
# Experiment: Cytotoxicity in MT-2 cells
# Assay type: cell-based
# Details: human
# Experimental: (§5) PMPA (9-[(R)-2-(phosphonomethoxy)propyl]adenine) and PMPA carbonates were examined to determine their activity against HIV-1. The antiviral activity of the carbonates 5a, 5c-g against HIV-1 (IIIB) was determined in MT-2 cells and the IC50 (50% inhibitory concentration) and CC50 (concentration to kill 50% of the cells) values were measured. […] The increased activity can be attributed to increased cellular uptake of the prodrugs followed by effective intracellular conversion to PMPA, which undergoes subsequent phosphorylation to the antivirally active diphosphate metabolite. […] The partition coefficient values support this hypothesis, with all prodrugs being more lipophilic (logP=0.6-3.2) compared to PMPA (logP=−2.5). [drawing 32]
row,Compound,CC50 [µM]
1,"C[C@H](Cn1cnc2c(N)ncnc21)OCP(=O)(O)O [PMPA, 9-[(R)-2-(phosphonomethoxy)propyl]adenine, reference compound]",250

# System: MT-2 cells
# Experiment: Cytotoxicity in MT-2 cells
# Assay type: cell-based
# Details: MT-2 cells; read-out: CC50 (concentration to kill 50% of the cells)
# Experimental: as §5
row,Compound,CC50 [µM]
1,C[C@H](Cn1cnc2c(N)ncnc21)OCP(=O)(OCOC(=O)OC(C)(C)C)OCOC(=O)OC(C)(C)C [Bis-t-Bu COM PMPA],10

# System: not listed separately
# Experiment: Partition coefficient (Log PC)
# Assay type: physicochemical
# Details: not given
row,Compound,Log PC pH 7.4
1,C[C@H](Cn1cnc2c(N)ncnc21)OCP(=O)(OCOC(=O)OC(C)(C)C)OCOC(=O)OC(C)(C)C [Bis-t-Bu COM PMPA],1.93
